Reference: article PMC12040169 (PLOS Biology, 2025)

Test: in vitro
Conditions: human, hela cells, % viability

| SMILES | viability at 28.5 h, 10 µM [%] |
| --- | --- |
| CN(C)CC(C)(C)CNC(=O)c1cc(C(=O)c2ccc(Cl)cc2Cl)c[nH]1 [CBK107416] | 94.8 |
| O=C(Nc1ccc(OC(F)(F)F)cc1)c1cnc(-c2ccc(Cl)cc2)c(-c2ccc(O)cc2)c1 [CBK037485] | 109 |
| COc1ccc(CC(=O)c2ccc(O)cc2O)cc1 [CBK012203] | 88.2 |
| CC(C)C1c2cccn2CCN1S(=O)(=O)c1ccc2[nH]c(=O)[nH]c(=O)c2c1 (stereo not drawn) [CBK286391] | 99.6 |
| CCN(CCC(C)Sc1ccccc1)c1cncc(Oc2ccc(S(C)(=O)=O)cc2)n1 (stereo not drawn) [CBK137186T] | 96.5 |
| O=C(Cn1nnc2ccccc2c1=O)NCC(F)(F)F [CBK304533] | 94.1 |
| O=C(Cc1ccc(Cl)cc1)N1CCc2c([nH]c3ccccc23)C12CCN(Cc1ccc(F)cc1)C2 (stereo not drawn) [CBK059453] | 90.6 |
| CN(C)Cc1nc2c([nH]1)c(=O)n(C)c(=O)n2C [CBK140662] | 99.8 |
| Cc1ccc2c(c1)cc(C)c1nn(CC(=O)NC(C)C)c(=O)n12 [CBK283874] | 83.5 |
| Nc1cc(-c2cccs2)nn(Cc2ccccc2Cl)c1=O [CBK282884] | 91 |
| Cc1ccc(-c2nc3ccccc3[nH]2)cc1NC(=O)COc1cccc([N+](=O)[O-])c1 [CBK265932] | 94.3 |
| OCCc1ccc(Nc2cc(-c3cc4ccccc4s3)ncn2)cc1 [CBK090770] | 103 |
| O=C([C@H]1C[C@@H](O)[C@H](O)[C@@H]2N=C(Nc3ccc4c(c3)OCO4)S[C@@H]21)N1CCCCC1 [CBK288953] | 108 |
| O=c1[nH]c(=O)n([C@H]2C[C@@H](O)[C@@H](CO)O2)cc1CCO [CBK201239] | 99.6 |
| CC(=O)c1ccc(-c2ccc(C(=O)N3CCN(C)CC3)c(N3CCOCC3)n2)s1 [CBK106181] | 96.3 |
| Cc1ccc(-c2nc(C)c(C(=O)Nc3ccc(-n4cncn4)nc3)s2)o1 [CBK297770] | 95.3 |
| O=C(O)c1[nH]c2ccccc2c1C(c1cc(Cl)cc([N+](=O)[O-])c1O)c1c(C(=O)O)[nH]c2ccccc12 [CBK267814] | 95.6 |
| CC1(C)CC(N(Cc2ccccc2)Cc2ncc[nH]2)CC(C)(C)N1 [CBK283179] | 95.2 |
| CCOc1cc(OCC)cc(C(=O)N2CCC3(CC2)CC(=O)c2cc(CC)ccc2O3)c1 [CBK168009] | 101 |
| Cc1nn(C)cc1S(=O)(=O)Nc1ccc2c(ccn2C)c1 [CBK282806] | 77.4 |
| Cc1ccnc(NCC2CCN(c3cc(=O)n4oc(C)cc4n3)C2)c1 (stereo not drawn) [CBK305191] | 84.6 |

| SMILES | viability at 28.5 h, 10 µM [%] |
| --- | --- |
| CC(=O)Nc1c(Nc2ccccc2)c2ccccc2oc1=O [CBK261756] | 88.1 |
| O=C(O)CS(=O)(=O)c1ccc(Cl)cc1 [CBK262036G] | 114 |
| COc1cc(F)cc(OC2CCNCC2)c1NC(=O)c1coc2c1C(=O)CCC2 [CBK050351T] | 91.5 |
| C[S+]([O-])c1ccc(-c2cnc(NCC3CCN(C(=O)OC(C)(C)C)CC3)cn2)cc1 (stereo not drawn) [CBK173723] | 83.4 |
| OCCNc1ncnc2c1cnn2-c1ccccc1 [CBK077741C] | 81.3 |
| Cc1cc(C(C)(C)C)cc(S(=O)(=O)Nc2ccc(C(=O)O)c(O)c2)c1C [CBK299820] | 88.3 |
| NNC(=O)COc1ccc(Cl)cc1Cl [CBK261671] | 92.6 |
| CCOc1ccc(S(=O)(=O)N2CCC(C(=O)NCCO)CC2)cc1 [CBK269817] | 88.6 |
| O=C(CSc1nnc2ccccn12)Nc1ccccc1 [CBK287328] | 109 |
| CS(=O)(=O)Nc1cc2ccccc2c(-c2ccncc2)n1 [CBK085746] | 92 |
| CN(C)CC1CN(C(=O)c2ccccc2F)Cc2ccccc2O1 (stereo not drawn) [CBK285188] | 86.9 |
| CCc1c(C)nc2c(-c3ccc(OC)c(OC)c3)cnn2c1O [CBK287962] | 87 |
| CCOc1ccc(C(=O)Nc2nonc2CC)cc1 [CBK287287] | 94.3 |
| CCn1cc(Cl)c(C(=O)NC2CCN(c3cc(C)n[nH]3)CC2)n1 [CBK304322] | 91.8 |
| CCCCN(C=O)c1c(CC)nc2ccc(C(=O)Nc3ccc(Cl)c(Cl)c3)cn12 [CBK145470] | 84.1 |
| NC1=NC(=O)C(CC(=O)Nc2ccccc2Cl)S1 (stereo not drawn) [CBK039145] | 99.1 |
| CN(C)CCN1CCN(c2cccc(-c3ccc(-c4ccccc4)cc3)n2)CC1 [CBK037610] | 103 |
| Cc1cc(O)nc(C(C)N2CCOC(C(C)(C)C)C2)n1 (stereo not drawn) [CBK304097] | 104 |
| Cc1ncccc1-c1cc2cccnc2n1CCCNC(=O)C1CC1C (stereo not drawn) [CBK282688] | 101 |
| OCc1cccc(-c2cncc(NCCc3cccnc3)n2)c1 [CBK037946] | 98.8 |
| CC1(OCCCO)SC(NC2CCCCCC2)=NC1=O (stereo not drawn) [CBK107927] | 91.5 |

| SMILES | viability at 28.5 h, 10 µM [%] |
| --- | --- |
| Cc1cc(C)n(CC2CN(C(C)C(=O)NCc3ccco3)CCO2)n1 (stereo not drawn) [CBK305351] | 101 |
| Cc1ccc2c(c1)cc(C(=O)N1CCOC(C(=O)N3CCc4ccccc4C3)C1)n2C (stereo not drawn) [CBK286035] | 93.8 |
| O=c1c2c([nH]c3nc(COc4ccccc4)nn13)CCC2 [CBK288188] | 98 |
| COc1ccc(CCNC(=O)N2CCC(C(=O)O)CC2)cc1 [CBK156073] | 75.6 |
| COC(=O)c1sccc1NS(=O)(=O)c1ccccc1C(F)(F)F [CBK034717] | 108 |
| Cc1cc(/C=C\c2nc(O)c([N+](=O)[O-])c(=O)[nH]2)c(C)n1-c1ccc(C(=O)O)cc1 [CBK267334] | 96.4 |
| CN1CCN(CCCNC(=O)N2CCN(c3ccc(F)cc3)CC2)CC1 [CBK156386] | 91.2 |
| Cc1csc(NC(=O)CN2CCOC(c3ccc(F)cc3)C2)n1 (stereo not drawn) [CBK304703] | 116 |
| CCn1c2cc(C)sc2c2cnn(CCN3CCCC3)c(=O)c21 [CBK284151] | 99.7 |
| COc1cc(C)c(NC(=O)C(=S)NCc2ccco2)cc1C [CBK268582] | 103 |
| CC1(CNC(=O)c2cc(-c3ccc(F)cc3)no2)COC1 [CBK281757] | 84.2 |
| COc1ccc(/C=N/NC(=O)C2CCN(c3ncc(C(F)(F)F)cc3Cl)CC2)cc1 [CBK007433] | 102 |
| C=CCn1cc(CN(CCN(C)C)Cc2ccc(C)o2)c(C)n1 [CBK282844] | 101 |
| CCn1c(SCC(=O)N/N=C/C(C)=C/c2ccccc2)nc2ccccc21 [CBK263178] | 107 |
| CCc1c(C)nc2ccccc2c1SCCC(=O)N(C)C [CBK149718T] | 99.9 |
| Cc1ccccc1C(=O)Nc1cccc(NC(=O)c2ccc(-c3cc4ccccc4oc3=O)cc2)c1 [CBK267256] | 118 |
| O=C(Nc1ncnc2c1[nH]c(=O)n2C1CC(O)C(CO)O1)c1ccccc1 (stereo not drawn) [CBK201250] | 94.6 |
| CCNC(=O)Nc1ccc2ccc(-c3ccsc3)nc2n1 [CBK070699] | 73.5 |
| O=C(CCSc1ccccc1)Nc1ccc(Br)cc1F [CBK266825] | 101 |
| CC(C)[C@@H](CO)Nc1cncc(-c2cccc3ccccc23)n1 [CBK065566] | 98.4 |
| Cn1c(SCC(=O)Nc2ccc(Br)cc2C(F)(F)F)nnc1-c1ccncc1 [CBK265905] | 84.4 |
